Patent US20210137961A1, “Compositions and Methods for Treating Dry Eye Diseases” (priority 2017, published 2021)
In brackets after ≈: the same amount, converted by molar mass. Blank lines part the entries; values can stand above or below the compound they belong to.

Tests used:
TNFα = assay: LPS-induced TNFα production in PMA-differentiated U937 cells (ELISA); format: cell-based, human; conditions: for inhibition of TNFα production (in words): solithromycin and telithromycin at 100 μM, clarithromycin at 333 μM
Protocol: (§1) EXAMPLE. […] Cells. The human monocytic cell line U937 was obtained from the American Type Culture Collection (ATCC, Rockville, Md.). PBMCs from COPD patients were obtained from Brompton hospital and separated by AccuSPIN (Sigma-Aldrich). […] U937 cells were differentiated into adherent macrophage-like morphology by exposure to PMA (50 ng/ml) for 48 h in complete growth medium. Cell viability was assessed microscopically by trypan blue staining. Cell toxicity was determined by MTT assay as needed. This study was approved by the ethics committee of the Royal Brompton Hospitals, and all subjects gave written informed consent. Cytokine ELISA. TNFα and IL-8 concentrations in the supernatant of cell cultures were determined by sandwich ELISA according to the manufacturer's instructions (R&D Systems Europe, Abingdon, UK). Statistical analysis. The results were expressed as the mean±SEM. Comparisons of data in two groups were performed using the Student's t test or the Wilcoxon signed rank test. Multiple comparisons were made by one-way ANOVA with post hoc test (Dunnett's) as appropriate. The difference was considered significant at p<0.05. […] Anti-inflammatory effects of solithromycin in U937 cells.

phospholipase = assay: Phospholipase inhibition in other cell lines; format: cell-based; conditions: for IC50: read-out: IC50 for phospholipase inhibition, other cell lines
[1] = system: Haemophilus parainfluenzae; assay: MIC against Haemophilus parainfluenzae; format: cell-based; conditions: N 11
Mycoplasma hominis = assay: MIC against Mycoplasma hominis; format: cell-based; conditions: N 13
MMP9 = MMP9 activity in PMA-stimulated U937 cells (gelatin zymography); format: cell-based, human; conditions: PMA stimulation
Protocol: EXAMPLE. […] Cells. The human monocytic cell line U937 was obtained from the American Type Culture Collection (ATCC, Rockville, Md.). PBMCs from COPD patients were obtained from Brompton hospital and separated by AccuSPIN (Sigma-Aldrich). […] U937 cells were differentiated into adherent macrophage-like morphology by exposure to PMA (50 ng/ml) for 48 h in complete growth medium. Cell viability was assessed microscopically by trypan blue staining. Cell toxicity was determined by MTT assay as needed. This study was approved by the ethics committee of the Royal Brompton Hospitals, and all subjects gave written informed consent. Zymography. MMP9 enzyme activity was measured by gelatin zymography. […] After electrophoresis, gels were incubated and rinsed with Novex® zymogram renaturing buffer (Invitrogen) for 30 min at room temperature. The gels were then rinsed in Novex® zymogram developing buffer (Invitrogen) for 30 min at room temperature prior to overnight incubation in the developing buffer at 37° C. After incubation, the gels were stained using a Colloidal Blue Staining Kit (Invitrogen) to visualize the zymogen bands. Statistical analysis. The results were expressed as the mean±SEM. Comparisons of data in two groups were performed using the Student's t test or the Wilcoxon signed rank test. Multiple comparisons were made by one-way ANOVA with post hoc test (Dunnett's) as appropriate. The difference was considered significant at p<0.05.

CXCL8 = assay: LPS-induced CXCL8 (IL-8) production in PMA-differentiated U937 cells (ELISA); format: cell-based, human; conditions: for inhibition of CXCL8 (IL-8) production (in words): solithromycin and telithromycin at 100 μM, clarithromycin at 333 μM
Protocol: as §1

[2] = system: Immortalized human meibomian gland epithelial cells (HMGECs); assay: HMGEC lysosome and neutral lipid accumulation, differentiation and proliferation; format: cell-based; conditions: meibomian gland epithelial cells
Protocol: EXAMPLE. Immortalized human meibomian gland epithelial cells (HMGECs) are cultured in the presence of vehicle or test compound, such as Soli (2, 10, or 20 μg/ml) for 1 to 7 days under proliferating (keratinocyte serum-free medium; KSFM) or differentiating (DMEM/F12 plus 10% fetal bovine serum) conditions. A positive control (epidermal growth factor and bovine pituitary extract for proliferation; Azi for differentiation) and a negative control (media only) are included with the experiments. Additional details are described in JAMA Ophthalmol 132(2): 226-228 (Feb. 1, 2014) and Current Eye Research, 1-6 (2017), each of which is incorporated herein by reference.
HMGECs are evaluated for cell number, neutral lipid content (LipidTox) and lysosome accumulation (LysoTracker). […] Strong lysosomal effects are observed with the 10 μg/ml dose of Soli (relative stimulation=30), on the first day of dosing, and those effects are statistically different (p<0.01) from the control group (relative stimulation=13). In contrast, the 10 μg/m1Azi dose is not statistically different from the control group (relative stimulation=18) until day 3. […] Compounds described herein, such a Soli, affect lysosome and lipid accumulation and differentiation of HMGECs. The effect of Soli on lysosome appearance is faster than that of Azi.

P. acnes = assay: MIC against P. acnes; format: cell-based; conditions: for MIC50 / MIC90: Cutibacterium acnes

Compound: CC[C@H]1OC(=O)[C@H](C)[C@@H](O[C@H]2C[C@@](C)(OC)[C@@H](O)[C@H](C)O2)[C@H](C)[C@@H](O[C@@H]2O[C@H](C)C[C@H](N(C)C)[C@H]2O)[C@](C)(O)C[C@@H](C)CN(C)[C@H](C)[C@@H](O)[C@]1(C)O [Azithromycin, azithromycin]
- inhibition of TNFα production (in words) (TNFα): did not inhibit
- reversibility of phospholipase inhibition (phospholipase; after dosing is stopped): remains unchanged for several days after dosing is stopped
- IC50 (phospholipase): 300 µM
- MIC Range [1]: 0.5-2^ μg/mL
- MIC Range (Mycoplasma hominis): 0.5-4^ μg/mL
- inhibitory effects on MMP9 activity, lower than solithromycin (MMP9): 10 fold
- inhibition of CXCL8 (IL-8) production (in words) (CXCL8): did not inhibit

- IC50 (TNFα; Homo sapiens, U-937, LPS, PMA-differentiated U937 cells, read-out: IC50 on TNFα release): 426 ± 63.9 µM
- IC50 (CXCL8; Homo sapiens, U-937, LPS, PMA-differentiated U937 cells, read-out: IC50 on CXCL8 release): 506 ± 44 µM
Compound: CC[C@H]1OC(=O)[C@H](C)[C@@H](O[C@H]2C[C@@](C)(OC)[C@@H](O)[C@H](C)O2)[C@H](C)[C@@H](O[C@@H]2O[C@H](C)C[C@H](N(C)C)[C@H]2O)[C@](C)(OC)C[C@@H](C)C(=O)[C@H](C)[C@@H](O)[C@]1(C)O [Clarithromycin, clarithromycin]
- inhibition of TNFα production (in words) (TNFα): modest effects
- inhibitory effects on MMP9 activity, lower than solithromycin (MMP9): 10 fold
- meibomian gland differentiation (in words) [2]: do not cause clinically significant meibomian gland differentiation
- inhibition of CXCL8 (IL-8) production (in words) (CXCL8): modest effects

Compound: CCCCCCCCCC(=O)N[C@@H](Cc1c[nH]c2ccccc12)C(=O)N[C@H](CC(N)=O)C(=O)N[C@@H](CC(=O)O)C(=O)N[C@@H]1C(=O)NCC(=O)N[C@@H](CCCN)C(=O)N[C@@H](CC(=O)O)C(=O)N[C@H](C)C(=O)N[C@@H](CC(=O)O)C(=O)NCC(=O)N[C@H](CO)C(=O)N[C@@H]([C@H](C)CC(=O)O)C(=O)N[C@@H](CC(=O)c2ccccc2N)C(=O)O[C@@H]1C [Daptomycin]
- MIC50 (P. acnes; P. acnes): 2 µg/mL (≈ 1.23 µM)
- MIC90 (P. acnes; P. acnes (51 species)): 4 µg/mL (≈ 2.47 µM)
- MIC Range (P. acnes; P. acnes (51 species)): 0.5 to 8 µg/mL

Compound: CC[C@H]1OC(=O)[C@H](C)[C@@H](O[C@H]2C[C@@](C)(OC)[C@@H](O)[C@H](C)O2)[C@H](C)[C@@H](O[C@@H]2O[C@H](C)C[C@H](N(C)C)[C@H]2O)[C@](C)(O)C[C@@H](C)C(=O)[C@H](C)[C@@H](O)[C@]1(C)O [Erythromycin]
- inhibition of TNFα production (in words) (TNFα): did not inhibit
- IC50 (phospholipase): > 400 µM
- effect on MMP9 activity (in words) (MMP9): no effect
- meibomian gland differentiation (in words) [2]: do not cause clinically significant meibomian gland differentiation
- inhibition of CXCL8 (IL-8) production (in words) (CXCL8): did not inhibit

Compound: CC[C@H]1OC(=O)[C@H](C)C(=O)[C@H](C)[C@@H](O[C@@H]2O[C@H](C)C[C@H](N(C)C)[C@H]2O)[C@](C)(OC)C[C@@H](C)C(=O)[C@H](C)[C@H]2N(CCCCn3cnc(-c4cccnc4)c3)C(=O)O[C@]12C [Telithromycin]
- inhibition of TNFα production (in words) (TNFα): did not inhibit
- meibomian gland differentiation (in words) [2]: do not cause clinically significant meibomian gland differentiation
- inhibition of CXCL8 (IL-8) production (in words) (CXCL8): did not inhibit

Compound: CN[C@H](CC(C)C)C(=O)N[C@H]1C(=O)N[C@@H](CC(N)=O)C(=O)N[C@H]2C(=O)N[C@H]3C(=O)N[C@H](C(=O)N[C@H](C(=O)O)c4cc(O)cc(O)c4-c4cc3ccc4O)[C@H](O)c3ccc(c(Cl)c3)Oc3cc2cc(c3O[C@@H]2O[C@H](CO)[C@@H](O)[C@H](O)[C@H]2O[C@H]2C[C@](C)(N)[C@H](O)[C@H](C)O2)Oc2ccc(cc2Cl)[C@H]1O [Vancomycin]
- MIC50 (P. acnes; P. acnes): 1 µg/mL (≈ 0.69 µM)
- MIC90 (P. acnes; P. acnes (51 species)): 1 µg/mL (≈ 0.69 µM)
- MIC Range (P. acnes; P. acnes (51 species)): 0.12 to 1 µg/mL

Compound: CC[C@H]1OC(=O)[C@H](C)C(=O)[C@H](C)[C@@H](O[C@@H]2O[C@H](C)C[C@H](N(C)C)[C@H]2O)[C@](C)(OC/C=C/c2cnc3ccccc3c2)C[C@@H](C)C(=O)[C@H](C)[C@H]2NC(=O)O[C@@]21C [cethromycin]
- meibomian gland differentiation (in words) [2]: do not cause clinically significant meibomian gland differentiation

Compound: Penicillin
- MIC 50% (P. acnes; P. acnes): ≤0.03 µg/mL
- MIC 90% (P. acnes; P. acnes (51 species)): 0.06 µg/mL
- MIC Range (P. acnes; P. acnes (51 species)): ≤0.03-1^ μg/ml
